What all share (format): in vivo
Series [1] can be described thus: Plasma exposure (PK), rat. Particulars: 10 mg/kg SC, 1.5 h. As for the experimental part: Across the set of experiments, PK was either collected from satellite animals or in separate, dedicated studies. In addition to plasma PK, exposures were obtained in brain tissue for rat and mouse, and plasma protein binding and brain tissue binding were measured. Using the measured exposures, partitioning, and binding parameters, and the […]

Series [2] relates to ACh levels in the rat PFC. The experiment in a line: Prefrontal cortex acetylcholine levels via microdialysis, rat. The text has this:
Adult male Sprague-Dawley rats (280–360 g) were obtained from Charles-River Laboratories, Raleigh, NC and male C57BL/6J DRD1a WT and D1 DA receptor knockout mice (DRD1a-905781) were obtained from The Jackson Laboratories (Bar Harbor, ME). Animals were housed on a 12-h light/dark cycle with free access to food and water and allowed to acclimate for at least 5 d after arrival. Aseptic technique was used during the surgical procedure in order to prevent infection. On the day of the procedure animals were anesthetized with isoflurane (4%) and their heads shaved. The animals were then placed into a Kopf stereotaxic frame, the surgical area disinfected by swabbing with Provodine solution, and the area isolated with a sterile surgical drape. Anesthesia was maintained with isoflurane (2.5%–3%) delivered through a nose cone using a Univentor 400 anesthesia unit. Animals were given a 0.1 ml subcutaneous (s.c.) injection of Metacam (NSAID, meloxicam, 5 mg/ml, Boehringer Ingelheim) as a post-operative analgesic. Marcaine (bupivacaine, 0.5%, Hospira, Lake Forest, IL), a long acting local anesthetic, was administered s.c. at the surgical area to minimize pain and discomfort. […]
(§1) For conventional analysis, ACh was analyzed by high performance liquid chromatography (HPLC) utilizing a modification of the BAS ACh-choline assay kit (BAS part # MF-8910). […]

Series [3] deals with mPFC low frequency delta activity. The experiment in a line: mPFC low frequency delta field potential oscillation power, anesthetized rat. As for the experimental part:
Experiments were performed on n=10 adult male Sprague-Dawley rats (275–305 g) under urethane anesthesia (1.5 g/kg, i.p.). The femoral vein was cannulated for i.v. administration of drugs. A stimulation electrode was placed in the CA1/subiculum region (coordinates: A-P = +6.3 mm, M–L = +5.2 mm, D-V = +8.0 mm) using stereotactic methods and unilateral local field potential (LFP) was recorded by a metal monopolar macroelectrode placed into the medial PFC (mPFC; coordinates: A-P = +3.0 mm, M-L = +0.6 mm, D-V = +5.0 mm). […] Evoked responses to the first and the second stimuli were identified (P1 and P2, respectively) and the amount of PPF determined by the formula: (P2 amplitude/P1 amplitude). Waveform averages used to calculate PPF consisted of 60 consecutive stimuli. Five minutes were allowed between administration of each drug dose and the starting of the subsequent average of each 10-min period after each cumulative dose (0.1–1 mg/kg, IV). Disruption in power of LFP delta activity was measured as the percentage of power in low frequency (0–1.8 Hz) irregular activity in the total (0–4 Hz) delta power range. LFP power spectra were determined during periods concurrent with waveform averages and PPF calculation. Statistical significance was determined by means of two-tailed paired Student’s t-test.

The subject of series [4] is acetylcholine levels in the PFC of WT and D1 KO mice. Briefly: Prefrontal cortex acetylcholine levels via microdialysis, WT and D1 KO mouse. Particulars: 10 mg/kg SC.
Description: Adult male Sprague-Dawley rats (280–360 g) were obtained from Charles-River Laboratories, Raleigh, NC and male C57BL/6J DRD1a WT and D1 DA receptor knockout mice (DRD1a-905781) were obtained from The Jackson Laboratories (Bar Harbor, ME). Animals were housed on a 12-h light/dark cycle with free access to food and water and allowed to acclimate for at least 5 d after arrival. Aseptic technique was used during the surgical procedure in order to prevent infection. On the day of the procedure animals were anesthetized with isoflurane (4%) and their heads shaved. The animals were then placed into a Kopf stereotaxic frame, the surgical area disinfected by swabbing with Provodine solution, and the area isolated with a sterile surgical drape. Anesthesia was maintained with isoflurane (2.5%–3%) delivered through a nose cone using a Univentor 400 anesthesia unit. Animals were given a 0.1 ml subcutaneous (s.c.) injection of Metacam (NSAID, meloxicam, 5 mg/ml, Boehringer Ingelheim) as a post-operative analgesic. Marcaine (bupivacaine, 0.5%, Hospira, Lake Forest, IL), a long acting local anesthetic, was administered s.c. at the surgical area to minimize pain and discomfort.
A 1.5–2 cm incision was made along the midline of the skull, beginning from a point just behind the eyes and running posterior. The skin was retracted with hemostats and the skull was further exposed using blunt dissection with cotton swabs. Bleeding capillaries were cauterized, and the skull dried with a sterile gauze sponge.
A microdialysis guide cannula [Bioanalytical Systems Inc (BAS), West Lafayette, IN, part # MD-2251] was placed into a guide holder on the stereotaxic frame and positioned over “Bregma”. The guide cannula was positioned over the PFC (A-P, +3.2 mm; M-L, +0.7 mm, left, relative to bregma) and the location marked on the skull. Using a 0.7 mm burr, a hole was made in the skull at the cannula position. […]
as §1

SMILES strings stand for the structures.

The results in this text go back to paper PMC7358525, “Characterization of PF-6142, a Novel, Non-Catecholamine Dopamine Receptor D1 Agonist, in Murine and Nonhuman Primate Models of Dopaminergic Activation” (Frontiers in Pharmacology, 2020).

In series [1], `Cc1cc(Oc2nccc3occc23)ccc1-c1c(C)ncc2nccn12` [PF-6142] returned a PF-6142 plasma concentration of 1260 ng/mL. In addition, in series [2] (10 mg/kg SC for five consecutive days), the “PF-6142 mediated increase in cortical ACh after repeated dosing (AUC 75-180 min, day 5)” value is “maintained”. Moreover, the “cortical ACh levels, time course” value in series [2] (PF-6142 10 mg/kg SC acute on day 5 after subchronic vehicle, vs 5 d vehicle) was “increased cortical ACh levels”. The “MK-801-induced increases in low frequency delta” value in series [3] (PF-6142 0.1-1 mg/kg IV cumulative) is listed as “dose-dependently reversed”. Further, the “MK-801-induced increases in low frequency delta activity after SCH-23390 pretreatment” value in series [3] (PF-6142 cumulative IV up to 3 mg/kg (p=0.11)) is “no effect”. The “PFC ACh levels vs vehicle (AUC 75-180 min)” value in series [4] (D1 KO mice) is listed as “not in the KO group”; in series [4] (WT mice), “increased ACh levels”.
